The results in this text go back to US9879050B2, “Substituted urea depsipeptide analogs as activators of the CLPP endopeptidase” (priority 2013, dated 2018).

*1 amine or outer side, *2 acyl side, *3 side chain or, on linkers, in order; H or OH if unused. Where a SMILES comes first, the peptide text is derived from it. Bridges are numbered along the chain shown (N, C = ends). [ ]: non-standard residue; d: D form. The star is where a group is joined. Phe(3,5-F2) = N[C@@H](Cc1cc(F)cc(F)c1)C(=O)O; NHPh(4-CF3) = FC(F)(F)c1ccc(N*)cc1; Heptenoyl(2E) = CCCC/C=C/C(=O)*; aThr = C[C@H](O)[C@H](N)C(=O)O; Pip = O=C(O)[C@@H]1CCCCN1; CO = O=C([*:1])[*:2]

The test system of one data set is E. coli K12ΔtolC. In words: Minimal inhibitory concentration, microbroth dilution. The class given is cell-based.
Conditions: not given
The procedure, abridged:
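Compound was diluted twofold in the appropriate broth. Bacterial suspension (approx. 10^5 cfu/mL) was then added in equal volume, giving a maximum test concentration of 200 μM. After aerobic overnight incubation at 37 °C, wells were inspected visually for growth.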
In general terms: In broth dilution the organism is exposed to a series of concentrations in liquid medium.
For `C[C@@H]1C[C@H]2C(=O)OC[C@H](NC(=O)[C@H](Cc3ccccc3)NC(=O)Nc3ccc(Cl)cc3)C(=O)N3CCC[C@H]3C(=O)N3CCCC[C@H]3C(=O)N[C@@H](C)C(=O)N2C1` [Compound 3, (S)-2-(3-(4-Chlorophenyl)Ureido)-N-((2R,6S,8aS,14aS,20S,23aS)-2,6-Dimethyl-5,8,14,19,23-Pentaoxooctadecahydro-1H,5H,14H,19H-Pyrido[2,1-I]Dipyrrolo[2,1-C:2′,1′-L][1]Oxa[4,7,10,13]Tetraazacyclohexadecin-20-Yl)-3-Phenylpropanamide], the “Minimal Inhibitory Concentration E. coli K12ΔtolC” value is 25 µM.
Turning to `C[C@@H]1C[C@H]2C(=O)OC[C@H](NC(=O)[C@H](Cc3ccccc3)NC(=O)Nc3ccc(N(C)C)cc3)C(=O)N3CCC[C@H]3C(=O)N3CCCC[C@H]3C(=O)N[C@@H](C)C(=O)N2C1` [Compound 5, (S)—N-((2R,6S,8aS,14aS,20S,23aS)-2,6-Dimethyl-5,8,14,19,23-Pentaoxooctadecahydro-1H,5H,14H,19H-Pyrido[2,1-1]Dipyrrolo[2,1-C:2′,1′-L][1]Oxa[4,7,10,13]Tetraazacyclohexadecin-20-Yl)-2-(3-(4-(Dimethylamino)Phenyl)Ureido)-3-Phenylpropanamide], the “Minimal Inhibitory Concentration E. coli K12ΔtolC” value came to 50 µM.
Same read-out and setting: next, `COc1ccc(NC(=O)N[C@@H](Cc2ccccc2)C(=O)N[C@H]2COC(=O)[C@@H]3C[C@@H](C)CN3C(=O)[C@H](C)NC(=O)[C@@H]3CCCCN3C(=O)[C@@H]3CCCN3C2=O)cc1` [Compound 6, (S)—N-((2R,6S,8aS,14aS,20S,23aS)-2,6-Dimethyl-5,8,14,19,23-Pentaoxooctadecahydro-1H,5H,14H,19H-Pyrido[2,1-1]Dipyrrolo[2,1-C:2′,1′-L][1]Oxa[4,7,10,13]Tetraazacyclohexadecin-20-Yl)-2-(3-(4-Methoxyphenyl)Ureido)-3-Phenylpropanamide]: 50 µM; `C[C@@H]1C[C@H]2C(=O)OC[C@H](NC(=O)[C@H](Cc3ccccc3)NC(=O)Nc3ccccc3Cl)C(=O)N3CCC[C@H]3C(=O)N3CCCC[C@H]3C(=O)N[C@@H](C)C(=O)N2C1` [Compound 7, (S)-2-(3-(2-Chlorophenyl)Ureido)-N-((2R,6S,8aS,14aS,20S,23aS)-2,6-Dimethyl-5,8,14,19,23-Pentaoxooctadecahydro-1H,5H,14H,19H-Pyrido[2,1-I]Dipyrrolo[2,1-C:2′,1′-L][1]Oxa[4,7,10,13]Tetraazacyclohexadecin-20-Yl)-3-Phenylpropanamide]: 200 µM.
Take `C[C@@H]1C[C@H]2C(=O)OC[C@H](NC(=O)[C@H](Cc3ccccc3)NC(=O)Nc3cccc(Cl)c3)C(=O)N3CCC[C@H]3C(=O)N3CCCC[C@H]3C(=O)N[C@@H](C)C(=O)N2C1` [Compound 9, (S)-2-(3-(3-Chlorophenyl)Ureido)-N-((2R,6S,8aS,14aS,20S,23aS)-2,6-Dimethyl-5,8,14,19,23-Pentaoxooctadecahydro-1H,5H,14H,19H-Pyrido[2,1-I]Dipyrrolo[2,1-C:2′,1′-L][1]Oxa[4,7,10,13]Tetraazacyclohexadecin-20-Yl)-3-Phenylpropanamide]: the “Minimal Inhibitory Concentration E. coli K12ΔtolC” value was determined as 25 µM.

System in the next data set: not listed separately
The data set can be described thus: in vitro. The settings on record: CD-1, mouse, microsomes, pH 7.4. The protocol: Compounds were initially prepared by dissolving them into DMSO at a final concentration of 10 mM. NADPH regenerating solutions A and B and mouse liver microsomes (CD-1) were obtained from BD Gentest (Woburn, Mass.). Ninety-six well deep well plates were obtained from MidWest Scientific Inc (Valley Park, Mo.).
Sample preparation for microsomal stability was modified from methods of Di, L., et al., Int J Pharm. 2005 Jun. 13; 297(1-2): 110-9. A set of incubation times of 0, 15, 30, 60, 120, and 240 minutes were used. Mouse liver microsomal solutions were prepared by adding 58 μL of concentrated human or mouse liver microsomes (20 mg/mL protein concentration) to 1.756 mL of 0.1 M potassium phosphate buffer (pH 7.4) and 5 μL of 0.5 M EDTA to make a 0.6381 mg/mL (protein) microsomal solution. NADPH regenerating agent contained 113 μL of NADPH A, 23 μL of NADPH B, and 315 μL of 0.1 M potassium phosphate buffer (pH 7.4). The diluted test compound solutions (2 μL) were each added directly to a 1.79 mL of liver microsomal solution. This solution was mixed and 90 μL was transferred to 6 time points plates (each in triplicate wells). For the time 0 plate, 225 μL of cold acetonitrile with internal standard ([…] warfarin) was added to each well, followed by addition of NADPH regenerating agent (22.5 μL) and no incubation. For other five time points' plate, NADPH regenerating agent (22.5 μL) was added to each well to initiate the reaction. The plates were incubated at 37° C. for the required time, followed by quenching of the reaction by adding 225 μL of cold acetonitrile with internal standard (4 μg/ml warfarin). All of the plates were sealed and mixed well at 600 rpm for 10 minutes followed by centrifugation at 4000 rpm for 20 minutes. The supernatants (120 μL) were transferred to analytical plates for analysis by LCMS. LCMS conditions were described in the materials and instrumentation section above. The metabolic stability is evaluated via the half-life from least-squares fit of the multiple time points based on first-order kinetics.
Regarding `CCCC/C=C/C(=O)N[C@@H](Cc1cc(F)cc(F)c1)C(=O)N[C@@H]1C(=O)N2CCC[C@H]2C(=O)N2CCCC[C@H]2C(=O)N[C@@H](C)C(=O)N2CCC[C@H]2C(=O)O[C@H]1C` [ADEP 2719, reference compound] ({Heptenoyl(2E)}-[Phe(3,5-F2)][aThr]P[Pip]AP; ester 2-C), the half-life (as a rule, the time in which the quantity being followed falls by half) was 6 min.
With `Cc1ccc(NC(=O)N[C@@H](Cc2cc(F)cc(F)c2)C(=O)N[C@@H]2C(=O)N3CCC[C@H]3C(=O)N3CCCC[C@H]3C(=O)N[C@@H](C)C(=O)N3CCC[C@H]3C(=O)O[C@H]2C)cc1` [Compound 15, (S)-3-(3,5-Difluorophenyl)-N-((6S,8aS,14aS,20S,21 S,23aS)-6,21-Dimethyl-5,8,14,19,23-Pentaoxooctadecahydro-1H,5H,14H,19H-Pyrido[2,1-I]Dipyrrolo[2,1-C:2′,1′-L][1]Oxa[4,7,10,13]Tetraazacyclohexadecin-20-Yl)-2-(3-(P-Tolyl)Ureido)Propanamide], the half-life was 18 min.
The same measure, in the same setting: next, `C[C@@H]1NC(=O)[C@@H]2CCCCN2C(=O)[C@@H]2CCCN2C(=O)[C@@H](NC(=O)[C@H](Cc2cc(F)cc(F)c2)NC(=O)Nc2ccc(C(F)(F)F)cc2)[C@H](C)OC(=O)[C@@H]2CCCN2C1=O` [Compound 16, (S)-3-(3,5-Difluorophenyl)-N-((6S,8aS,14aS,20S,21 S,23aS)-6,21-Dimethyl-5,8,14,19,23-Pentaoxooctadecahydro-1H,5H,14H,19H-Pyrido[2,1-I]Dipyrrolo[2,1-C:2′,1′-L][1]Oxa[4,7,10,13]Tetraazacyclohexadecin-20-Yl)-2-(3-(4-(Trifluoromethyl)Phenyl)Ureido)Propanamide] ({NHPh(4-CF3)-CO}-[Phe(3,5-F2)][aThr]P[Pip]AP; ester 2-C): 42 min; `C[C@@H]1NC(=O)[C@@H]2CCCCN2C(=O)[C@@H]2CCCN2C(=O)[C@@H](NC(=O)[C@H](Cc2cc(F)cc(F)c2)NC(=O)Nc2ccc3c(c2)OCO3)[C@H](C)OC(=O)[C@@H]2CCCN2C1=O` [Compound 17, (S)-2-(3-(Benzo[D][1,3]Dioxol-5-Yl)Ureido)-3-(3,5-Difluorophenyl)-N-((6S,8aS,14aS,20S,21 S,23aS)-6,21-Dimethyl-5,8,14,19,23-Pentaoxooctadecahydro-1H,5H,14H,19H-Pyrido[2,1-I]Dipyrrolo[2,1-C:2′,1′-L][1]Oxa[4,7,10,13]Tetraazacyclohexadecin-20-Yl)Propanamide]: 486 ± 66 min.
Still for that read-out and setting: next, `Cc1ccc(NC(=O)N[C@@H](Cc2cc(F)cc(F)c2)C(=O)N[C@@H]2C(=O)N3CCC[C@H]3C(=O)N3CCCC[C@H]3C(=O)N[C@@H](C)C(=O)N3C[C@@H](C)C[C@H]3C(=O)O[C@H]2C)cc1` [Compound 18, (S)-3-(3,5-Difluorophenyl)-2-(3-(P-Tolyl)Ureido)-N-((2R,6S,8aS,14aS,20S,21S,23aS)-2,6,21-Trimethyl-5,8,14,19,23-Pentaoxooctadecahydro-1H,5H,14H,19H-Pyrido[2,1-I]Dipyrrolo[2,1-C:2′,1′-L][1]Oxa[4,7,10,13]Tetraazacyclohexadecin-20-Yl)Propanamide]: 60 ± 6 min; `C[C@H]1C[C@H]2C(=O)O[C@@H](C)[C@H](NC(=O)[C@H](Cc3cc(F)cc(F)c3)NC(=O)Nc3ccc(C(F)(F)F)cc3)C(=O)N3CCC[C@H]3C(=O)N3CCCC[C@H]3C(=O)N[C@@H](C)C(=O)N2C1` [Compound 19, (S)-3-(3,5-Difluorophenyl)-2-(3-(4-(Trifluoromethyl)Phenyl)Ureido)-N-((2R,6S,8aS,14aS,20S,21S,23aS)-2,6,21-Trimethyl-5,8,14,19,23-Pentaoxooctadecahydro-1H,5H,14H,19H-Pyrido[2,1-I]Dipyrrolo[2,1-C:2′,1′-L][1]Oxa[4,7,10,13]Tetraazacyclohexadecin-20-Yl)Propanamide]: 30 min; `C[C@H]1C[C@H]2C(=O)O[C@@H](C)[C@H](NC(=O)[C@H](Cc3cc(F)cc(F)c3)NC(=O)Nc3ccc4c(c3)OCO4)C(=O)N3CCC[C@H]3C(=O)N3CCCC[C@H]3C(=O)N[C@@H](C)C(=O)N2C1` [Compound 20, (S)-2-(3-(Benzo[D][1,3]Dioxol-5-Yl)Ureido)-3-(3,5-Difluorophenyl)-N-((2R,6S,8aS,14aS,20S,21 S,23aS)-2,6,21-Trimethyl-5,8,14,19,23-Pentaoxooctadecahydro-1H,5H,14H,19H-Pyrido[2,1-I]Dipyrrolo[2,1-C:2′,1′-L][1]Oxa[4,7,10,13]Tetraazacyclohexadecin-20-Yl)Propanamide]: 414 ± 78 min.
On to `Cc1ccc(NC(=O)N[C@@H](Cc2ccccc2)C(=O)N[C@H]2COC(=O)[C@@H]3C[C@@H](C)CN3C(=O)[C@H](C)NC(=O)[C@@H]3CCCCN3C(=O)[C@@H]3CCCN3C2=O)cc1` [Compound 23, (S)—N-((2R,6S,8aS,14aS,20S,23aS)-2,6-Dimethyl-5,8,14,19,23-Pentaoxooctadecahydro-1H,5H,14H,19H-Pyrido[2,1-I]Dipyrrolo[2,1-C:2′,1′-L][1]Oxa[4,7,10,13]Tetraazacyclohexadecin-20-Yl)-3-Phenyl-2-(3-(P-Tolyl)Ureido)Propanamide], for which the half-life was 178 ± 18 min.
